# From ChEMBL document CHEMBL3832552, “DailyMed|setid=e3780ba1-46ef-410c-b2fc-f1ffbfb598f3 | SULAR - nisoldipine tablet, film coated, extended release|Physicians Total Care, Inc”
# Assay: Evaluation of pharmacokinetic parameters for Nisoldipine following oral administration of 17 to 51 mg of Nisoldipine extended release tablets.
# Type: ADME, organism-based
# Conditions: human, in vivo, dose 17-51 mg, dosed compound id 7, dosed compound name NISOLDIPINE, tissue Plasma
smiles,measurement,setting,value
COC(=O)C1=C(C)NC(C)=C(C(=O)OCC(C)C)C1c1ccccc1[N+](=O)[O-] (stereo not drawn) [NISOLDIPINE],Tmax,,9.2 h
same,bioavailability,,5%
same,half-life,read-out: t1/2-elimination (converted),13.7 h
